pIC50: −log10 of the molar value.
Columns and labels:
[1] = test system: experimental DIC; assay: Effect on experimental DIC and MOF (endotoxin-induced); type: in vivo, SD-rats; settings: Dose 100 μg/kg/min infusion, rat, 4 hours after endotoxin 10 mg/kg; for CPK: Table 5-1
Protocol: [III] Effect on experimental DIC
SD-rats, body weight of about 200 g, were starved overnight. Sodium pentobarbital was intraperioneally administered to anesthetize a rat, and then a cannula was inserted to the femoral vein, and the test substance dissolved in an injective 5% glucose solution was continually infused. Then, 10 minutes from the start of the injection, endotoxin (E. coli 0127:B8, Difco, U.S.) dissolved in physiological saline was injected through the tail vein to an amount of 10 mg/kg body weight, and 4 hours from the administration of endotoxin, the abdomen was opened, blood was obtained from the abdominal aorta, and platelets (Plt), fibrinogen (Fbg), fibrin degradation product (FDP), glutamic oxaloacetic transamirase (GOT), creatinine phosphokinase (CPK), and blood urin nitrogen (BUN) were measured.

[2] = biological target: T1, human plasmin (Homo sapiens, UniProt P00747); assay: Anti-plasmin activity: inhibition of S-2251 degradation; type: biochemical; settings: substrate S-2251, 37°C, pH7.4; read-out: Plasmin S-2251 (I50)
T1 construct: 50 µl of 0.2 casein units/ml of human plasmin
Protocol: ii) Assay method of inhibition of S-2251 degradation
The test substance was dissolved in a 0.05 M Tris-HC1 (pH7.4) buffer to make a total volume of 400 µl, and 50 µl of a 3 mM S-2251 solution was added to the solution. The mixture was incubated at 37°C for 5 minutes in an incubator, and after the addition of 50 µl of 0.2 casein units/ml of human plasmin, and incubation at 37°C for 4 minutes, the reaction was terminated by an addition of 50 µl of 50% acetic acid.

[3] = biological target: T1, human plasmin; assay: Anti-plasmin activity: inhibition of fibrinolysis (fibrin clot lysis time); type: biochemical; settings: concentration giving a fibrin clot lysis time twice that of control, 37°C, pH7.4; read-out: Plasmin Fibrin (I50)
[4] = biological target: T2, bovine factor Xa (Bos taurus, UniProt P00743); assay: Anti-FXa activity: inhibition of S-2222 degradation; type: biochemical; settings: substrate S-2222, 37°C, pH 8.3; read-out: FXa S-2222 (I50)
T2 construct: 0.05 ml of 0.3 vial/ml bovine factor Xa
Protocol: 4) Assay of anti-FXa activity Assay method of inhibition of S-2222 degradation
To 0.4 ml of the test substance dissolved in a 0.05 M Tris-HC1 (pH 8.3) buffer is added 0.05 ml of 3 mM S-2222 solution, and after incubation at 37°C for about 4 minutes, an addition of 0.05 ml of 0.3 vial/ml bovine factor Xa, and a reaction at 37°C for 4 minutes, the - reaction was terminated by adding 0.05 ml of 50% acetic acid.

[5] = biological target: T3, human plasma kallikrein (Homo sapiens, UniProt P03952); assay: Anti-plasma kallikrein activity: inhibition of S-2302 degradation; type: biochemical; settings: substrate S-2302, 37°C, pH 7.8; read-out: Plasma kallikrein S-2302 (I50)
T3 construct: 50 µl of 0.12 units/ml human plasma kallikrein solution
Protocol: 2) Assay of anti-plasma kallikrein activity Assay method of inhibition of S-2302 degradation
(§1) The test substance was dissolved in a 0.05 M Tris-HC1 (pH 7.8) buffer to make a total volume of 400 µl, and 50 µl of a 2 mM S-2302 solution was added to the solution. After incubation at 37°C for 5 minutes in an incubator, an addition of 50 µl of 0.12 units/ml human plasma kallikrein solution, and incubation at 37°C for 5 minutes, the reaction was terminated by an addition of 50 µl of 50% acetic acid.

[6] = biological target: human urokinase (Homo sapiens, UniProt P00749); assay: Anti-urokinase activity: inhibition of S-2444 degradation; type: biochemical; settings: substrate S-2444, 37°C, pH 8.8; read-out: Urokinase S-2444 (I50)
Protocol: 3) Assay of anti-urokinase activity Assay method of inhibition of S-2444 degradation
as §1, with “8.8)” for “7.8)”, “1” for “2”, “S-2444” for “S-2302”, “mixture.” for “solution.”, “500” for “0.12”, “urokinase” for “plasma kallikrein”

[7] = test system: experimental shock; assay: Effect on experimental shock (endotoxin-induced), survival ratio; type: in vivo, ICR-mice; settings: dose of 30 mg/kg intraperitoneally 15 minutes before endotoxin 40 mg/kg, mouse
Protocol: [IV] Effect on experimental shock
ICR-mice, body weight of about 25 g, were starved overnight. The test substance was dissolved in an injective 5% glucose solution and intraperioneally administered, and 15 minutes later, endotoxin (E. coli 0127:B8, Difco, U.S.) dissolved in a physiological saline was intraperioneally administered to an amount of 40 mg/kg body weight.

[8] = test system: experimental pancreatitis; assay: Effect on experimental pancreatitis (sodium taurochorate + trypsin into the common bile duct), survival ratio; type: in vivo, SD-rats; settings: 80 μg/kg/min. x 80 min. continuous infusion, rat
From the text: [II] Effect on experimental pancreatitis
SD-rats, body weight of about 200 g were, starved overnight, and 10 to 24 animals were used in one group. Sodium pentobarbital was intraperioneally administered to anesthetize each rat, and then a cannula was inserted to the femoral vein for the administration of the test substance. After abdominal surgery, the bile duct was blocked at a part thereof proximate to the liver, by a clip, a polyethylene tube was inserted to the common bile duct at a part thereof most proximate to the duodenum, and 0.1 ml of solution containing 2 mg sodium taurochorate and 1000 U trypsin dissolved in physiological saline was injected retrogrodely. After removal of the clip and tube, the common bile duct was ligated and the abdomen was closed. Note, the test substance was dissolved in an injective 5% glucose solution, and in the case of a continuous infusion, the solution was administered over 80 minutes starting from 10 minutes before the generation of pancreatitis. In the case of oral administration, the test substance was administered through an oral catheter 30 minutes before the generation of pancreatitis. After 24 hours and 48 hours from the generation of pancreatitis, the survival ratio of the animals was calculated and compared with a control group.

[9] = in vivo; settings: mouse, intravenous, ICR male mice, up-and-down method, read-out: Acute toxicity (LD50)
Protocol: ICR male mice 5 to 10 weeks old were used. The test substance was dissolved in a 5% dimethylsulfoxide aqueous solution, and the solution was intravenously administered in an amount of 0.1 to 0.2 ml/10 g body weight. An LD50 value was calculated by up-and-down method.

T2 sequence (P00743 234-492 limits assumed): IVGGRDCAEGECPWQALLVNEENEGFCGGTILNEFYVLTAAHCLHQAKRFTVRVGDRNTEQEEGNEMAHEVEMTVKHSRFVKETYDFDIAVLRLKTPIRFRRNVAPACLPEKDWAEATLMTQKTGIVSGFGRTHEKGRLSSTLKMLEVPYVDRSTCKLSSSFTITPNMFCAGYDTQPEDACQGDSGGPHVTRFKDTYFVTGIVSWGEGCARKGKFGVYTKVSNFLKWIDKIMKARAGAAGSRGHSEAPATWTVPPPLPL
T2 sequence (P00743 41-180 partner limits assumed): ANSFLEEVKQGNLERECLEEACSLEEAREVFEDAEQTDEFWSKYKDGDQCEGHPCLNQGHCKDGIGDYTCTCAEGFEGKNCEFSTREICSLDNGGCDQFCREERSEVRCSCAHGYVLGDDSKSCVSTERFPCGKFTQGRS
T3 sequence (P03952 391-638 limits assumed): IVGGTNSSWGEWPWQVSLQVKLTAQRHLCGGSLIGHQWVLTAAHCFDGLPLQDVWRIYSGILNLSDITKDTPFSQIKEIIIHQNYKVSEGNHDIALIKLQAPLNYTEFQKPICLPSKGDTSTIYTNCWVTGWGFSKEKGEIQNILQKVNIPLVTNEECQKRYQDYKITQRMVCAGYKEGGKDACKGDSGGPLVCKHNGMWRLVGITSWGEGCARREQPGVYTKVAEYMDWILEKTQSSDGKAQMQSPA
T3 sequence (P03952 20-390 partner limits assumed): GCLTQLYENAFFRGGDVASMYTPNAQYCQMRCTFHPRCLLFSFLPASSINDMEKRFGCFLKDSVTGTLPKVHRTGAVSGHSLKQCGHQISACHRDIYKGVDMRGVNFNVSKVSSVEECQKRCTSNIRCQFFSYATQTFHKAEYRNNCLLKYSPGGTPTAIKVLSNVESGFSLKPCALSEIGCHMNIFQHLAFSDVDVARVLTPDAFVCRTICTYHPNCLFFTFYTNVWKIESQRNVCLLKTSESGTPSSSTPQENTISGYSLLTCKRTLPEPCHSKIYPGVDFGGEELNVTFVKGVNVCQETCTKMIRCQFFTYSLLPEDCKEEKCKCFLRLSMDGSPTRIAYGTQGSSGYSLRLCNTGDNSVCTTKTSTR
T1 sequence (P00747 581-810 limits assumed): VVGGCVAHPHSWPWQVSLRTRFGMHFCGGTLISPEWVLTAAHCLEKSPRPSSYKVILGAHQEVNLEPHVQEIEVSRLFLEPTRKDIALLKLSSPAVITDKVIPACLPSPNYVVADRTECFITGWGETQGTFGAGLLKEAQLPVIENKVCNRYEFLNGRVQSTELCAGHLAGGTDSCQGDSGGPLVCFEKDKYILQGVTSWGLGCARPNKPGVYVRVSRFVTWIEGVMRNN
T1 sequence (P00747 97-580 partner limits assumed): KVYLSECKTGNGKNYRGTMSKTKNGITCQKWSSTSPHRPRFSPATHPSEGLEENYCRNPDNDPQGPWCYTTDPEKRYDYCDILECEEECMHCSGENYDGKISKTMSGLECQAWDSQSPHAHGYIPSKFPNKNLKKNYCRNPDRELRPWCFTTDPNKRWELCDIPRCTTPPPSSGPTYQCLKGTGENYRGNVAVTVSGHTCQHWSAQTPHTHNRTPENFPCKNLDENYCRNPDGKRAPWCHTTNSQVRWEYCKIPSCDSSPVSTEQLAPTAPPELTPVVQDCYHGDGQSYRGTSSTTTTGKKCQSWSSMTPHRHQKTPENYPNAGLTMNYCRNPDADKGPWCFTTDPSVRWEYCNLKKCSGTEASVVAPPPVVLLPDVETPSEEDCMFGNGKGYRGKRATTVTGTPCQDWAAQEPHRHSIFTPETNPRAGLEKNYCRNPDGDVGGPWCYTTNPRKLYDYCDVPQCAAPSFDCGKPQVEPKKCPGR

| SMILES | BUN [1] [mg/dL] | FDP [1] [µg/mL] | Fbg [1] [mg/dL] | GOT [1] [U/ml] | Plat [1] | CPK [1] [U/1] | pIC50 [2] | pIC50 [3] | pIC50 [4] | pIC50 [5] | pIC50 [6] | Effect on experimental shock (Survival ratio (%) after 24 hours) [7] [%] | Effect on experimental pancreatitis Survival ratio(%) After 24 hours [8] [%] | Effect on experimental pancreatitis Survival ratio(%) After 48 hours [8] [%] | LD50 [9] [mg/kg] |
| --- | --- | --- | --- | --- | --- | --- | --- | --- | --- | --- | --- | --- | --- | --- | --- |
| NCC1CCC(C(=O)NC(Cc2ccccc2)C(=O)Nc2ccc(CC(=O)O)cc2)CC1 (centres unmarked) [Compound 17] | 34 ± 11 | 16 to 64 | 143 ± 23 | 146 ± 21 | 63 ± 2 x 10^4/μl | 22 ± 6 | 3.12 | 3.34 | < 3.00 | 5.74 | 3.21 |  |  |  |  |
| NCC1CCC(C(=O)N[C@H](Cc2ccc([N+](=O)[O-])cc2)C(=O)Nc2ccc(C(=O)c3ccccc3)cc2)CC1 (some centres unmarked) [Compound 25] |  |  |  |  |  |  | 3.62 | 4.24 |  | < 3.60 | 3.77 | 70 |  |  |  |
| NC[C@H]1CC[C@H](C(=O)N[C@@H](Cc2ccc(OCc3ccccc3)cc2)C(=O)Nc2ccc(CCC(=O)O)cc2)CC1 [Compound 16] |  |  |  |  |  |  | 4.92 | 5.05 |  | 5.74 | 3.68 |  | 58.3 | 58.3 | > 100 |
| NC[C@H]1CC[C@H](C(=O)N[C@@H](Cc2ccc(OCc3ccccc3)cc2)C(=O)Nc2ccncc2)CC1 [Compound 4] |  |  |  |  |  |  | 5.47 | 6.15 | 4.05 | 5.92 | 4.49 | 82 |  |  | 85 |
| CC(=O)c1ccc(NC(=O)[C@H](Cc2cccc(Oc3ccccc3)c2)NC(=O)[C@H]2CC[C@H](CN)CC2)cc1 [Compound 7] |  |  |  |  |  |  |  |  | < 3.70 |  |  | 90 |  |  | 60 |
| CC(=O)c1ccc(NC(=O)[C@@H](Cc2ccc(OCc3ccccn3)cc2)NC(=O)C2CCC(CN)CC2)cc1 (some centres unmarked) [Compound 24] |  |  |  |  |  |  | 4.11 | 3.62 |  | < 3.00 | < 3.00 |  |  |  |  |
| NCC1CCC(C(=O)NC(Cc2ccccc2)C(=O)Nc2ccc(C(=O)O)cc2)CC1 (centres unmarked) [Compound 22] | 30 ± 3 | 32 to 64 | 107 ± 18 | 195 ± 35 | 62 ± 12 x 10^4/μl | 14 ± 3 | < 3.00 | 3.25 | < 3.40 | 5.57 | < 3.00 |  |  |  | > 100 |
| NC[C@H]1CC[C@H](C(=O)NC(Cc2cccc(Oc3ccccc3)c2)C(=O)Nc2cccnc2)CC1 (mixture of isomers) [Compound 14] |  |  |  |  |  |  | 4.01 | 4.15 |  | 5.70 | 3.60 |  | 58.3 | 41.7 | 50 |
| NC[C@H]1CC[C@H](C(=O)NC(Cc2cccc(Oc3ccccc3)c2)C(=O)Nc2ccncc2)CC1 (mixture of isomers) [Compound 13] |  |  |  |  |  |  |  |  | < 3.70 |  |  | 79 |  |  | 85 |
| NCC1CCC(C(=O)NC(Cc2ccc(OCc3ccccc3)cc2)C(=O)Nc2ccncc2)CC1 (centres unmarked) [Compound 23] |  |  |  |  |  |  | 3.92 | 3.85 |  | 3.44 | < 3.00 | 51 |  |  | 60 |
| CC(=O)c1ccc(NC(=O)[C@H](Cc2ccccc2)NC(=O)[C@H]2CC[C@H](CN)CC2)cc1 [Compound 2] |  |  |  |  |  |  | 4.44 | 4.68 | 3.27 | 6.07 | 4.24 | 50 |  |  | 50 |
| CCOC(=O)CCc1ccc(NC(=O)C(Cc2ccc(OCc3ccccc3)cc2)NC(=O)C2CCC(CN)CC2)cc1 (centres unmarked) [Compound 21] |  |  |  |  |  |  |  |  |  |  |  |  | 45.5 | 36.4 | 100 |
| CC(=O)c1ccc(NC(=O)[C@H](Cc2ccc(OCc3ccccn3)cc2)NC(=O)c2ccc(CN)cc2)cc1 [Compound 19] | 30 ± 4 | 16 to 32 | 147 ± 16 | 219 ± 39 | 80 ± 11 x 10^4/μl | 19 ± 2 | 5.38 | 5.60 |  | 4.92 |  |  | 50.0 | 33.3 |  |
| NC[C@H]1CC[C@H](C(=O)N[C@@H](Cc2ccc(OCc3ccccc3)cc2)C(=O)Nc2ccncn2)CC1 [Compound 15] |  |  |  |  |  |  | 4.82 | 5.17 |  | 5.29 | 3.96 |  | 50.0 | 25.0 | > 100 |
| NC[C@H]1CC[C@H](C(=O)NC(Cc2cccc(Oc3ccccc3)c2)C(=O)Nc2ccnc(Cl)c2)CC1 (mixture of isomers) [Compound 11] |  |  |  |  |  |  | 4.51 | 5.00 |  | 6.37 | 3.72 | 84 | 42.0 | 26.7 | > 100 |
